Common to all, as to type: functional
The subject of test [1] is Mycobacterium tuberculosis. The experiment in a line: Antitubercular activity against isoniazid, streptomycin, ethionamide, ethambutol and rifampicin resistant Mycobacterium tuberculosis isolate 7 assessed as growth inhibition.
Test [2] concerns Mycobacterium tuberculosis. The experiment in a line: Antitubercular activity against isoniazid, streptomycin, ethionamide, ethambutol, rifampicin and ofloxacin resistant Mycobacterium tuberculosis isolate 8 assessed as growth inhibition.
For test [3], the system named is Mycobacterium tuberculosis. The experiment in a line: Antitubercular activity against isoniazid, streptomycin, ethionamide and ethambutol resistant Mycobacterium tuberculosis isolate 1 assessed as growth inhibition.
For test [4], the system named is Mycobacterium tuberculosis. Nature of the test: Antitubercular activity against isoniazid and ethionamide resistant Mycobacterium tuberculosis isolate 5 assessed as growth inhibition.
For test [5], the system named is Mycobacterium tuberculosis. The experiment in a line: Antitubercular activity against isoniazid, streptomycin and ethionamide resistant Mycobacterium tuberculosis isolate 6 assessed as growth inhibition.
Test [6] concerns Mycobacterium tuberculosis. Nature of the test: Antitubercular activity against isoniazid and ethionamide resistant Mycobacterium tuberculosis isolate 2 assessed as growth inhibition.
Test [7] has as its system Mycobacterium tuberculosis. The experiment in a line: Antitubercular activity against isoniazid, streptomycin and rifampicin resistant Mycobacterium tuberculosis isolate 3 assessed as growth inhibition.
The test system of test [8] is Mycobacterium tuberculosis. The experiment in a line: Antitubercular activity against isoniazid and rifampicin resistant Mycobacterium tuberculosis isolate 4 assessed as growth inhibition.

≈ marks a conversion by molar mass, not a printed value.

In the case of `CCOC(=O)c1nc(C2CCCCC2)sc1-c1ccc(C#N)cc1`, the minimal inhibitory concentration (MIC) in test [1] was 16 µg/mL (≈ 47 µM); in test [2] it was greater than 32 µg/mL; in test [3], 8 µg/mL (≈ 23.5 µM); in test [4], 8 µg/mL (≈ 23.5 µM); in test [5], 8 µg/mL (≈ 23.5 µM); in test [6] it was 8 µg/mL (≈ 23.5 µM). Also, the figures for the MIC in test [7] and in test [8] were 16 µg/mL (≈ 47 µM) and 4 µg/mL (≈ 11.7 µM), respectively.

One may read the MIC as the lowest concentration that inhibits growth of the organism.

Values taken from ChEMBL document CHEMBL4364263, “Synthesis and biological evaluation of 2,4,5-trisubstituted thiazoles as antituberculosis agents effective against drug-resistant tuberculosis” (Eur J Med Chem, 2019).
